For this assay, the system named is H1975-OR xenografts. The assay can be described thus: H1975-OR xenograft tumor growth. Type of assay: in vivo, mice. The conditions noted are these: osimertinib p.o. 5 mg/kg daily, NGI-189 i.p. 10 mg/kg every other day.

Each structure is given as a SMILES string.

Consider `C=CC(=O)Nc1cc(Nc2nccc(-c3cn(C)c4ccccc34)n2)c(OC)cc1N(C)CCN(C)C` [osimertinib], for which the tumor response result is reported as “did not respond”.

Source of the values: article PMC11643024 (bioRxiv, 2024).
